Source: ChEMBL document CHEMBL1201862, “PubChem BioAssay data set” (2004)
Active and inactive are the calls of the source.

Tests used:
[1] = biological target: T1, Ubiquitin-conjugating enzyme E2 N (Homo sapiens, UniProt P61088); type: functional;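 also: Dose-response confirmation in a TR-FRET assay detecting UBC13-driven polyubiquitin chain formation, inhibition measured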
T1 sequence (P61088 whole entry): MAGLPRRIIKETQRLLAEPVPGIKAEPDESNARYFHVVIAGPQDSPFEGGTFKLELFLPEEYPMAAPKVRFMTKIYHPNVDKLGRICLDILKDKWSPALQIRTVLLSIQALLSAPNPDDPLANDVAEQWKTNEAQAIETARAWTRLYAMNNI

[2] = tested on: HEK293; test: cells; type: functional, cell-based; conditions: Homo sapiens
[3] = NIH3T3 cell viability loss – ATP luminescence, mouse fibroblasts, counter-screen, dose response (AID 2010); type: functional, cell-based;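 also: cells exposed to compound for about 90 hours before reading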
[4] = tested on: HEK293; test: cells; type: functional, cell-based; conditions: Homo sapiens; remark: listed apart in the source
[5] = tested on: HEK293; test: inhibition of NOD1-driven NF-kB reporter – cell-based, luminescence, uHTS, primary screen (AID 1578); type: functional; conditions: Homo sapiens
[6] = biological target: Nucleotide-binding oligomerization domain-containing protein 2 (Homo sapiens, UniProt Q9HC29); test: inhibition of NOD2-driven NF-kB reporter – cell-based, luminescence, uHTS, HEK293 (AID 1566); type: functional
Sequence of Nucleotide-binding oligomerization domain-containing protein 2 (Q9HC29 whole entry, the tested form may be a part): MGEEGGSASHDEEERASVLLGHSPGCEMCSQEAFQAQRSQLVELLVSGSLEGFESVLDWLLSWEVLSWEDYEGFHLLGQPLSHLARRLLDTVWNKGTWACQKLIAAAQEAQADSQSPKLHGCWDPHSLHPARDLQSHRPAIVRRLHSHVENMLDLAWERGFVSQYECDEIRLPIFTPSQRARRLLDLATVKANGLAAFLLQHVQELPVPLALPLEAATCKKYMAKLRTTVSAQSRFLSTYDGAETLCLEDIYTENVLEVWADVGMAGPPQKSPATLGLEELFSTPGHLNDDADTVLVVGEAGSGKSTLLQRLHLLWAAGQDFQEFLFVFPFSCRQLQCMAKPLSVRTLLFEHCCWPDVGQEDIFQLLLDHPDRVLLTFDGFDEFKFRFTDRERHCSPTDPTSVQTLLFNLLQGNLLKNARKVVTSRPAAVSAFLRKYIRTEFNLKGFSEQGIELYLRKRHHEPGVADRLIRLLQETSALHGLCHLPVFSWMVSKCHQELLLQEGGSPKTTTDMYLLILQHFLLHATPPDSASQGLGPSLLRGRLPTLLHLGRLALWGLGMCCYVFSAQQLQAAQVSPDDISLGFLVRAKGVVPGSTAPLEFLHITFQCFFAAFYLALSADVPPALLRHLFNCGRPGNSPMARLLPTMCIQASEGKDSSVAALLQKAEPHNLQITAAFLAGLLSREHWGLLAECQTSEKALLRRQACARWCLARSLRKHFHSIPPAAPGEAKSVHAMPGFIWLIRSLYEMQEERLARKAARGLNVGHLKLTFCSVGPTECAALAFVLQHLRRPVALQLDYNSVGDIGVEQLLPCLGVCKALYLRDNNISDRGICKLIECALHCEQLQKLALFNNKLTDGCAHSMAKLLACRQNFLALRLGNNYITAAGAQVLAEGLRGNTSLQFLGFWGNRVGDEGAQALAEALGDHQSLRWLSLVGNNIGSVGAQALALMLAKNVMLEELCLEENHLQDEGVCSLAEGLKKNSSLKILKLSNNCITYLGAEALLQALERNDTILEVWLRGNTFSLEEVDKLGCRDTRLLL

[7] = tested on: HEK293; test: NOD2 signaling inhibitors in MDP-stimulated cells, cell-based, uHTS, luminescence (AID 2001); type: functional; conditions: Homo sapiens
[8] = tested on: HEK293; test: cells; type: functional, cell-based; conditions: Homo sapiens; remark: listed apart in the source
[9] = Trypanosoma cruzi growth suppression in host cells – NIH3T3 host cells, beta-gal luminescence, confirmation (AID 2044); type: functional, cell-based;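 also: intracellular parasites grown in NIH/3T3 mouse fibroblasts as host cells; luminescent beta-galactosidase reporter signal from transgenic T. cruzi replicating inside host cells; inhibitors lower the luminescence signal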
[10] = blockers of HIV-1 ZM109 envelope-driven cell-cell fusion – HeLa effector, CEM target cells, luciferase, cherry-pick, dose response (AID 652058); type: functional, cell-based;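 also: luciferase signal from HIV-1 Env mediated cell-cell fusion of effector and target cells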
[11] = HIV-1 AD8 envelope cell-cell fusion blockers – cherry-pick, dose response (AID 652062); type: functional, cell-based;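 also: luciferase signal from cell-cell fusion driven by HIV-1 clade B AD8 Env; potency is for inhibitors of fusion seen as a drop in luminescence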
[12] = blockers of HIV-1 envelope-mediated cell-cell fusion – cherry-pick, dose response (AID 652057); type: functional, cell-based
[13] = biological target: Voltage-dependent T-type calcium channel subunit alpha-1H (Homo sapiens, UniProt O95180); type: functional;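 also: channel activity triggered by adding a high calcium stimulation buffer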
Sequence of Voltage-dependent T-type calcium channel subunit alpha-1H (O95180 whole entry): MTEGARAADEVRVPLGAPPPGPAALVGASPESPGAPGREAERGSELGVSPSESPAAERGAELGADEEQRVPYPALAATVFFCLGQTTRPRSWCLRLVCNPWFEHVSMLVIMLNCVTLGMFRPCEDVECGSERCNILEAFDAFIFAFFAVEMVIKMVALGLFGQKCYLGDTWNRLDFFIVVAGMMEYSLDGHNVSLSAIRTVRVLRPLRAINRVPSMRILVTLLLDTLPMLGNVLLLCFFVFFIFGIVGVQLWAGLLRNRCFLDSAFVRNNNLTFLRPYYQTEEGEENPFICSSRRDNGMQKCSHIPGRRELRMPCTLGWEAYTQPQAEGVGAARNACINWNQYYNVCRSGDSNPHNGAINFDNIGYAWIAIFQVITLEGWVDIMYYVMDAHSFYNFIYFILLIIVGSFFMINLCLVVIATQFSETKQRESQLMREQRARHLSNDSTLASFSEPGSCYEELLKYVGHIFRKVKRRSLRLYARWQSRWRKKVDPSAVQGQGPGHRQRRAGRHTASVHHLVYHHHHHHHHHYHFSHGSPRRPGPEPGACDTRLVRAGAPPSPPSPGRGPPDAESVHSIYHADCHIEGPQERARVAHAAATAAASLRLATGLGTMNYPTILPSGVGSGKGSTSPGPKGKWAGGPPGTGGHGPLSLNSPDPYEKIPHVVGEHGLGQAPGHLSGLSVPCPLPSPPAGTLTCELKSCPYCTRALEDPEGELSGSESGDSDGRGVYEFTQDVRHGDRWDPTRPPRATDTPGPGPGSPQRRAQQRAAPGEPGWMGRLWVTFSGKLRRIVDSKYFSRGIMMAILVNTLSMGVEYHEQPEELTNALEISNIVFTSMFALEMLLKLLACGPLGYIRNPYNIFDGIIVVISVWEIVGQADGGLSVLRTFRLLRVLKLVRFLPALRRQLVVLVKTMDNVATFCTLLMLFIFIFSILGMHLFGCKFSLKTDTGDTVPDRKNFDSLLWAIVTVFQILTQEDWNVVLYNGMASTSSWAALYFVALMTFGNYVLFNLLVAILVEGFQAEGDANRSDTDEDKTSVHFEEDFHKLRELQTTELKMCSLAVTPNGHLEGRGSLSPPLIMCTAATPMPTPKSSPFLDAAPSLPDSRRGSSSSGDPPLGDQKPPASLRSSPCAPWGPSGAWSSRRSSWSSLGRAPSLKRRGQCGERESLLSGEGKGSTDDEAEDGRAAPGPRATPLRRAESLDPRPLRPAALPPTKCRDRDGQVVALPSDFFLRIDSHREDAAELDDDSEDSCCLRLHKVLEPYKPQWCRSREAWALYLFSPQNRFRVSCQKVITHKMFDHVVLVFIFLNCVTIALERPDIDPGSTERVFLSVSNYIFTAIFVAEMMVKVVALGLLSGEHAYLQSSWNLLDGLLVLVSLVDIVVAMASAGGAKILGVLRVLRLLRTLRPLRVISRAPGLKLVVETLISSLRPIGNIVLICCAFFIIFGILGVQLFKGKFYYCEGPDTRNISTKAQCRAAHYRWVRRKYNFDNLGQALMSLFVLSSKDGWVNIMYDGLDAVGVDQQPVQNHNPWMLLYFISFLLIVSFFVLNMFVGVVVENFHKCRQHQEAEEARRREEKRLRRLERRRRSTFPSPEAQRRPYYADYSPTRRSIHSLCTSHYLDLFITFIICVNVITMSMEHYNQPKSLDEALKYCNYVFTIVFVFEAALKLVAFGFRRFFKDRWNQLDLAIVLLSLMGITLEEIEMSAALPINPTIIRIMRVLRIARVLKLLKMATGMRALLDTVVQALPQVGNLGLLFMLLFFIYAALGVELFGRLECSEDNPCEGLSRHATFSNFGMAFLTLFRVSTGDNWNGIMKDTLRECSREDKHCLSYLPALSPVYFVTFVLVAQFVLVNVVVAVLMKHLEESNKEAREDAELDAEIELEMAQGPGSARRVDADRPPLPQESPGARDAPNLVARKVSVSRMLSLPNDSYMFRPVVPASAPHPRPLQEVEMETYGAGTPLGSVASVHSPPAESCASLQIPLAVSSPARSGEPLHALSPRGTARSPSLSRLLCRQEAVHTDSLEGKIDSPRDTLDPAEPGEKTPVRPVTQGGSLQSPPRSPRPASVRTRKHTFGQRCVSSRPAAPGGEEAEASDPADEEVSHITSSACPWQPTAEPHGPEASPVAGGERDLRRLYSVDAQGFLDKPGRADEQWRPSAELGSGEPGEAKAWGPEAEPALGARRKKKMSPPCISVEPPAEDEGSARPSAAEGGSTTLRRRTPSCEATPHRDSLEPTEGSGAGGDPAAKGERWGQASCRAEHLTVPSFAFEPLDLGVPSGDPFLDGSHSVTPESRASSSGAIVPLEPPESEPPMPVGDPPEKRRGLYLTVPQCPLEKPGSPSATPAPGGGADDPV

[14] = alpha-synuclein stem-loop luciferase translation blockers – H4 neuroglioma cells, luminescence, confirmation (AID 1988); type: functional, cell-based
[15] = non-specific 3'UTR reporter inhibition in Clone20-Shn3RL – cell-based, Renilla luciferase, cherry-picked, counter-screen for Shn3 inhibitor project, dose response (AID 624133); type: functional
[16] = biological target: Nonstructural protein 1 (Influenza A virus, UniProt Q194T2); type: functional, Influenza A virus (A/California/07/2009(H1N1))
Sequence of Nonstructural protein 1 (Q194T2 whole entry): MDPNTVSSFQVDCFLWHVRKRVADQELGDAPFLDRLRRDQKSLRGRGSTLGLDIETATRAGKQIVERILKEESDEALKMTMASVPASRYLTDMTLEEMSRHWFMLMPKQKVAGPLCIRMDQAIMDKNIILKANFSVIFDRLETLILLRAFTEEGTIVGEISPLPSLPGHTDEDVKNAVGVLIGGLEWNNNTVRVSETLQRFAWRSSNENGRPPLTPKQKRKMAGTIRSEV

[17] = tested on: INS1; test: INS-1E survival protection against cytokine death – cell-based, luminescence, retest, dose response (AID 449756); type: functional; conditions: Rattus norvegicus;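 also: cell death triggered by IL-1 beta plus TNF-alpha plus IFN-gamma mixture; protective hits raise ATP signal compared with cytokine alone wells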
[18] = biological target: Heat shock protein HSP 90-alpha (Homo sapiens, UniProt P07900); type: functional, organism-based
[19] = tested on: Streptococcus sp. 'group A'; test: Streptococcus pyogenes SK(-)GAS viability under kanamycin – luminescence, BacTiterGlo, confirmation, counter-screen for streptokinase expression inhibitor project, dose response (AID 1900); type: functional, organism-based
[20] = Luminescence Cell-Based Dose Response HTS to Identify Inhibitors of 5'UTR Stem-Loop Driven Prion Protein mRNA Translation in H4 Neuroglioblastoma Cells. [Related pubchem assays: 1827 (Project Summary), 1813 (Primary HTS)]; type: functional
[21] = reduction of Shn3 3'UTR-driven luciferase in osteoblasts – cell-based, Clone20 osteoblasts, firefly luciferase, cherry-picked, dose response (AID 624132); type: functional;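 also: firefly luciferase luminescence from reporter carrying the Shn3 3'UTR in osteoblasts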
[22] = tested on: Streptococcus; test: GAS UMAA2166 growth inhibition – luminescence, BacTiterGlo, counter-screen for streptokinase expression inhibitor project, dose response (AID 1915); type: functional, organism-based;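 also: potency for reduction of bacterial viability or growth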
[23] = luciferase reporter signal suppression in cells – H4 neuroglioma cells, luminescence, dose response (AID 1990); type: functional, cell-based
[24] = loss of viability in HepG2 cells – cell-based, CellTiter-Glo, cherry-picked, cytotoxicity control for Shn3 inhibitor project, dose response (AID 624134); type: functional
[25] = biological target: T2, Estrogen receptor beta (Homo sapiens, UniProt Q92731); test: blockers of SRC-3 recruitment to ERβ – biochemical, ELISA, streptavidin-HRP readout, orthogonal assay, confirmation (AID 1060)
T2 sequence (Q92731 whole entry): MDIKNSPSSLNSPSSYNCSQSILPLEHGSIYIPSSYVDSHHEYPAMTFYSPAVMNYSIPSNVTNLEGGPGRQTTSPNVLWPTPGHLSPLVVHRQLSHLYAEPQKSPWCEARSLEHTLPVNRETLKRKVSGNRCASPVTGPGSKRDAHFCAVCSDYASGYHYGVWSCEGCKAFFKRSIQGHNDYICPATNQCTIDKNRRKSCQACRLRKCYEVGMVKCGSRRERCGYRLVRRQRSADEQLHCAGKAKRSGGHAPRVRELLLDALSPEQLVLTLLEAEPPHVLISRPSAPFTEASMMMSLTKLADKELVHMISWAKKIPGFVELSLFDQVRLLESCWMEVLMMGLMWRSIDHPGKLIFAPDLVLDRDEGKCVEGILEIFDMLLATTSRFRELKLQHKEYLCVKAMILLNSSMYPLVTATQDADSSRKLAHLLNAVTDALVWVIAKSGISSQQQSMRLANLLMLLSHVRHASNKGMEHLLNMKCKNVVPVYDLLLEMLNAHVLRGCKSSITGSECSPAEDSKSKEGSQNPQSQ

[26] = biological target: T2, Estrogen receptor beta
[27] = biological target: T3, Streptokinase A (Streptococcus pyogenes serotype M1, UniProt P10520); test: viability-normalized secreted streptokinase activity reduction – plasminogen activation absorbance, OD405, dose response (AID 1914); type: functional, Streptococcus pyogenes M1 GAS;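 also: secreted streptokinase activity via plasminogen activation per viability signal from cell pellet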
T3 sequence (P10520 whole entry): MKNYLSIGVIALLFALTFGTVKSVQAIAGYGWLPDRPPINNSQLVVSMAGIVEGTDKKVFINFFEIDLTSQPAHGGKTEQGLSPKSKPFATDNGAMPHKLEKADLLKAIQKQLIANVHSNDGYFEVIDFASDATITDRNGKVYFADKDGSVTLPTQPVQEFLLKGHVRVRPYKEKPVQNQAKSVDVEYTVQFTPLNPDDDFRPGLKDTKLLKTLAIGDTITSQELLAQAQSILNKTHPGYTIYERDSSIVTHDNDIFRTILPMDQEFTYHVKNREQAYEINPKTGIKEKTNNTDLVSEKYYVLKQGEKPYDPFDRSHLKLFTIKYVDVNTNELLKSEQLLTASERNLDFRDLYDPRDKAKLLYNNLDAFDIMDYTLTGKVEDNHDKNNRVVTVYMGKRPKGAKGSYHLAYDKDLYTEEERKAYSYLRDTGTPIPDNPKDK

[28] = biological target: T4, X-box-binding protein 1 (Homo sapiens, UniProt P17861); type: functional, Cricetulus griseus;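 also: confirmatory dose-response counter-screen serving a CHOP assay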
T4 sequence (P17861 whole entry): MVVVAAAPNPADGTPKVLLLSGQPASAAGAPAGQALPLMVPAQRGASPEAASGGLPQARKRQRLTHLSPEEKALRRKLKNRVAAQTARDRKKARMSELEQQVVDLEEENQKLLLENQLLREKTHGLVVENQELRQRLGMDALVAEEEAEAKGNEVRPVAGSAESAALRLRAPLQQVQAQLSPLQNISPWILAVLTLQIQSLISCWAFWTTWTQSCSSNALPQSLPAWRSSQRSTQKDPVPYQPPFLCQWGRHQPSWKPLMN

[29] = tested on: BJ; test: growth inhibition of engineered Ras-driven BJ cells – cell-based, alamar blue fluorescence, cherrypicked samples, dose response (AID 2631); type: functional; conditions: Homo sapiens;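 also: confirmatory dose-response assay in RAS-dependent BJ fibroblasts engineered with TERT, LT and ST, with cytotoxicity read by fluorescence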
[30] = tested on: BJ; test: BJ-TERT fibroblast viability loss – cell-based, RAS-independent, luminescence, dose response (AID 1933); type: functional; conditions: Homo sapiens
[31] = Luminescence Cell-Based Dose Retest to Confirm Inhibitors of Cancer Stem Cells. [Related pubchem assays (depositor defined):AID2717, AID2721]; type: functional; conditions: Homo sapiens
[32] = DRD fibroblast viability loss – cell-based, non-viral oncogenic, luminescence, dose response (AID 1934); type: functional; conditions: Homo sapiens
[33] = tested on: BJ; test: cells; type: functional, cell-based; conditions: Homo sapiens
[34] = tested on: BJ; test: BJ-TERT-LT-ST fibroblast viability loss – cell-based, RAS-independent, luminescence, dose response (AID 1935); type: functional; conditions: Homo sapiens;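 also: BJ fibroblasts immortalized with TERT plus LT and ST oncogenes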
[35] = off-target signal loss in HeLa-CEM21 co-culture – HeLa F-luc CTL cells, cherry-picked, counter-screen for HIV-1 Env fusion inhibitor project, dose response (AID 652040); type: functional, cell-based;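 also: potency for signal decrease marking cytotoxic or nonspecific inhibition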
[36] = OVCAR8 cell viability loss – plate reader, dry powder samples, PAX8 project, dose response (AID 743197); type: functional, cell-based; conditions: OVCAR-8
[37] = biological target: Paired box protein Pax-8 (Homo sapiens, UniProt Q06710); test: PAX8 transcriptional activity inhibition in RMG-I – RMG-I cells, luciferase, cherry-pick, dose response (AID 687027); type: functional, cell-based;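 also: luciferase reporter driven by Pax8 target thyroperoxidase promoter measured by SteadyGlo luminescence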
Sequence of Paired box protein Pax-8 (Q06710 whole entry): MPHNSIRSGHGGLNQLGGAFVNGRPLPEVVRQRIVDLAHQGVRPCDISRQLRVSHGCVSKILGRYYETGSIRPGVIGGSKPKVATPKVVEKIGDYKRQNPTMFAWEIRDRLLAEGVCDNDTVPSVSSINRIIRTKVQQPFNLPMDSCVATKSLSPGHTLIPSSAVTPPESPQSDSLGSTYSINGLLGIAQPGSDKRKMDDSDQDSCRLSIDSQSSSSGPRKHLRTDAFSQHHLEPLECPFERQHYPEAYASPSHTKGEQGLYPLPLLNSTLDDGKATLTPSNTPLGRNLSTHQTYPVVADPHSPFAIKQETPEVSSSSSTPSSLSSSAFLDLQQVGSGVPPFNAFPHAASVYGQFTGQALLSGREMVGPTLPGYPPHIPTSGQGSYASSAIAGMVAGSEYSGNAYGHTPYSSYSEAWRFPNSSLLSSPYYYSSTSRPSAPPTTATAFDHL

[38] = tested on: P388; test: cells; type: functional; conditions: Mus musculus
[39] = tested on: P388/ADR; test: cells; type: functional; conditions: Mus musculus
[40] = tested on: SN12K1; test: cells; type: functional; conditions: Homo sapiens
[41] = tested on: H4; test: Luminescence Cell-Based Dose Response HTS to Identify Activators of 5'UTR Stem-Loop Driven Prion Protein mRNA Translation in H4 Neuroglioblastoma Cells. [Related pubchem assays: 1829 (Project Summary), 1814 (Primary HTS)]; type: functional; conditions: Homo sapiens

CCOc1ccc(C(=O)C(C)OC(=O)c2nc(Cl)ccc2Cl)cc1 (stereo not drawn)
IC50 [1]: > 20 µM (inactive)

O=C(Cc1ccc(Br)cc1)Nc1ncc([N+](=O)[O-])s1
IC50 [2]: > 20 µM (inactive)
EC50 [3]: > 60 µM (not active)
IC50 [4]: 6.55 µM (active)
EC50 [5]: 3.15 µM (active)
EC50 [6]: > 20 µM (inactive)
IC50 [7]: 7.9 µM (inactive)
IC50 [8]: > 20 µM (inactive)
EC50 [9]: 0.553 µM (active)

O=C(CCN1C(=O)/C(=C/c2ccccc2Cl)SC1=S)NCCCN1CCOCC1
IC50 [1]: > 20 µM (inactive)

Cc1ccc(-c2nnc(N3CCN(C(=O)COc4ccccc4)CC3)c3ccccc23)cc1
AC50 [10]: 13.9 µM (active)
AC50 [11]: 34.9 µM (active)
AC50 [12]: 31.6 µM (active)
EC50 [13]: 4.54 µM (active)

O=C(/C=C/c1ccc(F)cc1)NC(=S)NNC(=O)c1cnccn1
EC50 [14]: > 120 µM (not active)
AC50 [15]: 2.01 µM (active)
IC50 [16]: 1.56 µM (active)
AC50 [17]: 1.21 µM (active)
AC50 [18]: 3.35 µM (active)
EC50 [19]: 1.37 µM (active)
EC50 [20]: 10.5 µM (active)
AC50 [21]: 1.39 µM (active)
EC50 [22]: 2.75 µM (active)
EC50 [23]: 11.7 µM (active)
AC50 [24]: > 70 µM (inactive)

COc1ccc(NC(=O)CN(c2ccccc2)S(=O)(=O)N(C)C)cc1OC
IC50 [25]: > 109 µM (not active)
IC50 [26]: 10.1 µM (active)

Cc1ccc(-c2nc3cc(NS(=O)(=O)c4ccc(C)cc4)ccc3o2)cc1
EC50 [19]: 5.82 µM (active)
EC50 [27]: 5.86 µM (active)
Absolute IC50 (XBP1) [28]: 10 µM
EC50 [22]: 18.1 µM (active)

Cc1ccc(-n2c(O)nc3c(C(N)=O)nc(-c4ccc(C)o4)nc32)cc1
Absolute IC50 (XBP1) [28]: 10 µM

N#C/C(=C\c1cccc(Oc2ccccc2)c1)C(=O)N1CCOCC1
AC50 [18]: 8.82 µM (active)

CCC1CCc2c(sc(NC(=O)c3ccoc3C)c2C(N)=O)C1 (stereo not drawn)
Absolute IC50 (XBP1) [28]: 10 µM

O=C(COc1ccc(Cl)cc1)Nc1nc(-c2ccc(S(=O)(=O)N3CCOCC3)cc2)cs1
IC50 [2]: > 20 µM (inactive)
IC50 [4]: 3.9 µM (active)
EC50 [5]: 10.3 µM (active)
EC50 [6]: 17 µM (active)
IC50 [7]: 4.96 µM (active)
IC50 [8]: > 20 µM (inactive)

Cn1cnc(Sc2[nH]cnc3ncnc2-3)c1[N+](=O)[O-]
EC50 [29]: > 133 µM (inactive)
EC50 [30]: > 150 µM (not active)
AC50 [31]: 1.42 µM (active)
EC50 [32]: 13 µM (active)
EC50 [33]: 8.4 µM (active)
EC50 [34]: > 150 µM (not active)

O=C(Nc1ccc2c(c1)OCO2)c1cccc2c1C(=O)N(Cc1cccnc1)C2
IC50 [25]: 3.13 µM (not active)
IC50 [26]: > 50 µM (not active)

CC1CCCC(C)N1CCCNC(=O)C1CCCN(c2ncnc3c2nc2n3CCCCC2)C1 (stereo not drawn)
IC50 [1]: > 20 µM (inactive)

CC(C)CN(C(=O)c1ccc(S(=O)(=O)N2CCCCC2)cc1)C1CCS(=O)(=O)C1 (stereo not drawn)
AC50 [10]: 6.21 µM (active)

C=C1CCN([C@@H](Cc2ccccc2)C(=O)NCCC(C)C)S(=O)(=O)c2ccccc21
AC50 [35]: 6.85 µM (active)
AC50 [10]: 3.56 µM (active)
AC50 [11]: 24.1 µM (active)
AC50 [12]: 3.91 µM (active)

C[C@@H]1CCCCO[C@@H](CN(C)C(=O)Nc2ccc(C(F)(F)F)cc2)[C@H](C)CN([C@H](C)CO)C(=O)c2cc(NS(=O)(=O)c3ccccc3)ccc2O1
AC50 [36]: > 70 µM (inactive)
AC50 [37]: 6.96 µM (active)

Cc1ccc(Cc2cncc(O)c2)cc1S(=O)(=O)O
IC50 [25]: 0.353 µM (not active)
IC50 [26]: 13.5 µM (active)

Nc1ncn([C@H]2C[C@H](O)[C@@H](CO)O2)c(=O)n1 [DECITABINE]
AC50 [35]: > 70 µM (inactive)
GI50 [38]: 0.051 µM (active)
GI50 [39]: 0.0959 µM (active)
GI50 [40]: > 375 µM (inactive)
EC50 [41]: 94.9 µM (active)
